Consider 29 compounds from patent US20070197590A1, “SUBSTITUTED DIPIPERIDINE CCR2 ANTAGONISTS” (priority 2006, published 2007).

Each structure is given as a SMILES string.

Test [1] deals with MCP-1 induced calcium ion influx in THP-1 cells. The test is described as follows: MCP-1 Induced Calcium Mobilization in THP-1 Cells. It counts as cell-based. To be noted: Homo sapiens, THP-1, THP-1 cells, 0.2 μM MCP-1, FLIPR; read-out: Inhibition of MCP-1 Induced Calcium Ion Influx IC50. An outline of the steps: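 Fluo-3-loaded (5 μM, 45 min) THP-1 cells preincubated 15 min with compound. Calcium change after 0.2 μM MCP-1 addition read by FLIPR relative to vehicle; IC50 values derived.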

Another test concerns the target T1, CCR2 (Homo sapiens, UniProt P41597).
T1 construct: host or cells: THP-1 cells
T1 sequence (P41597 1-360 isoform P41597-2): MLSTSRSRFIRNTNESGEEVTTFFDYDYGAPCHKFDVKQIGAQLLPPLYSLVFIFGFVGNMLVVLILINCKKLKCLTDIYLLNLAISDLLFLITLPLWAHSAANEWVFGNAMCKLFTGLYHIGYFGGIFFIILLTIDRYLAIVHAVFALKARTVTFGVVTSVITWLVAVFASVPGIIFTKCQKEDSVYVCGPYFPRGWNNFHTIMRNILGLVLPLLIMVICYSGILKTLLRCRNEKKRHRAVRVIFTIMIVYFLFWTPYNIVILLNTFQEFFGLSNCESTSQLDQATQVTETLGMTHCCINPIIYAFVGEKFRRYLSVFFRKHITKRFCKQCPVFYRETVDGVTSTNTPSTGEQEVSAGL
The test is described as follows: MCP-1 Receptor Binding Assay in THP-1 Cells. The note with it: THP-1 cells, 0.5 nM 125I labeled MCP-1, 2 hours at 30° C.; read-out: Inhibition of MCP-1 Binding IC50. An outline of the steps:
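Whole THP-1 cells incubated 2 h at 30° C with 0.5 nM 125I-MCP-1 and varying compound concentrations; bound radioactivity harvested on filters and counted by scintillation. Nonspecific binding with 1 μM cold MCP-1; IC50 for inhibition of binding versus vehicle.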

The subject of test [2] is MCP-1 induced chemotaxis of THP-1 cells. The test is described as follows: MCP-1 Induced Chemotaxis in THP-1 Cells. The test is classed as cell-based. To be noted: Homo sapiens, MCP-1 0.01 μg/mL, 3 hours at 37° C., read-out: Inhibition of MCP-1 Induced Chemotaxis IC50. The procedure: MCP-1 induced chemotaxis was run in a 24-well chemotaxis chamber. MCP-1 (0.01 μg/mL) was added to the lower chamber and 100 μL of THP-1 cells (1×10^7 cell/mL) was added to the top chamber. Varying concentrations of test compound were added to the top and bottom chambers. Cells were allowed to chemotax for 3 hours at 37° C. and 5% CO2. An aliquot of the cells that had migrated to the bottom chamber was taken and counted then compared to vehicle.
Table 3 lists IC50 values for inhibition of MCP-1 induced chemotaxis.

Regarding `CS(=O)(=O)Nc1ccc2[nH]cc(C3CCN(CC(=O)C4CCN(C(=O)C=Cc5cc(F)c(F)c(F)c5)CC4)CC3)c2c1` [Compound 18, N-{3-[1-(2-oxo-2-{1-[3-(3,4,5-trifluoro-phenyl)-acryloyl]-piperidin-4-yl}-ethyl)-piperidin-4-yl]-1H-indol-5-yl}-methanesulfonamide], the IC50 was 1700 nM in test [1], 680 nM on CCR2 and 420 nM in test [2].
As to `Cc1cccc(/C=C/C(=O)N2CCC(C(O)CN3CCC(c4c[nH]c5ncccc45)CC3)CC2)c1` (stereo not drawn) [Compound 19], the figures for the IC50 (in test [1]; at CCR2; in test [2]) were 30 nM, 130 nM and 190 nM, respectively.
For `O=C(/C=C/c1cc(F)cc(F)c1)N1CCC(C(O)CN2CCC(c3c[nH]c4ncccc34)CC2)CC1` (stereo not drawn) [Compound 20], in that order: 230 nM, 50 nM and 20 nM.
For `O=C(/C=C/c1cc(F)c(F)c(F)c1)N1CCC(C(O)CN2CCC(c3c[nH]c4ncccc34)CC2)CC1` (stereo not drawn) [Compound 21], in that order: 480 nM, 50 nM and 20 nM.
Consider `O=C(/C=C/c1cccc(C(F)(F)F)c1)N1CCC(C(O)CN2CCC(c3c[nH]c4ncccc34)CC2)CC1` (stereo not drawn) [Compound 22], for which the half-maximal inhibitory concentration (IC50) in test [1] is 30 nM; at CCR2 it was 190 nM; in test [2] it was 360 nM.
Taken in the same sequence, the figures for `O=C(/C=C/c1ccc(Cl)c(Cl)c1)N1CCC(C(O)CN2CCC(c3c[nH]c4ncccc34)CC2)CC1` (stereo not drawn) [Compound 23] were 7 nM, 20 nM and 20 nM.
`O=C(Nc1ccc(Cl)c(Cl)c1)N1CCC(C(O)CN2CCC(c3c[nH]c4ncccc34)CC2)CC1` (stereo not drawn) [Compound 24, 4-{1-hydroxy-2-[4-(1H-pyrrolo[2,3-b]pyridin-3-yl)-piperidin-1-yl]-ethyl}-piperidine-1-carboxylic acid (3,4-dichloro-phenyl)-amide]: the IC50 in test [1] stood at 120 nM; at CCR2, 70 nM; in test [2], 70 nM.
On to `CSc1ccc(NC(=O)N2CCC(C(O)CN3CCC(c4c[nH]c5ncccc45)CC3)CC2)cc1` (stereo not drawn) [Compound 25, 4-{1-hydroxy-2-[4-(1H-pyrrolo[2,3-b]pyridin-3-yl)-piperidin-1-yl]-ethyl}-piperidine-1-carboxylic acid (4-methylsulfanyl-phenyl)-amide], for which the results for the IC50 (in test [1]; on CCR2; in test [2]) were 1500 nM, 810 nM and 640 nM, respectively.
`COc1ccc2[nH]cc(C3CCN(CC(O)C4CCN(C(=O)/C=C/c5cc(F)cc(F)c5)CC4)CC3)c2c1` (stereo not drawn) [Compound 26]: the IC50 in test [1] is 370 nM; on CCR2, 70 nM; in test [2], 20 nM.
Taken in the same sequence, the figures for `CS(=O)(=O)Nc1ccc2[nH]cc(C3CCN(CC(O)C4CCN(C(=O)/C=C/c5cc(F)c(F)c(F)c5)CC4)CC3)c2c1` (stereo not drawn) [Compound 27] were 8 nM, 10 nM and 10 nM.
For `CS(=O)(=O)Nc1ccc2[nH]cc(C3CCN(CC(N)C4CCN(C(=O)C=Cc5cc(F)c(F)c(F)c5)CC4)CC3)c2c1` (stereo not drawn) [Compound 28, N-{3-[1-(2-amino-2-{1-[3-(3,4,5-trifluoro-phenyl)-acryloyl]-piperidin-4-yl}-ethyl)-piperidin-4-yl]-1H-indol-5-yl}-methanesulfonamide], in that order: 310 nM, 250 nM and 370 nM.
Turning to `COc1ccc(C2CCN(CC(O)C3CCN(C(=O)/C=C/c4cccc(C)c4)CC3)CC2)cc1` (stereo not drawn) [Compound 29], the results for the half-maximal inhibitory concentration (IC50) (in test [1]; on CCR2; in test [2]) were 90 nM, 70 nM and 70 nM, respectively.
Regarding `COc1ccc(C2CCN(CC(O)C3CCN(C(=O)/C=C/c4cccc(C(F)(F)F)c4)CC3)CC2)cc1` (stereo not drawn) [Compound 30], the IC50 turned out to be 220 nM in test [1], 50 nM on CCR2 and 60 nM in test [2].
For `COc1ccc(C2CCN(CC(O)C3CCN(C(=O)/C=C/c4ccc(F)c(F)c4)CC3)CC2)cc1` (stereo not drawn) [Compound 32], in that order: 80 nM, 70 nM and 100 nM.
On to `O=C(/C=C/c1cc(F)cc(F)c1)N1CCC(C(O)CN2CCC(c3cc[nH]n3)CC2)CC1` (stereo not drawn) [Compound 34], for which the IC50 in test [1] was 10900 nM; at CCR2, 570 nM; in test [2], 840 nM.
Taken in the same sequence, the figures for `Cc1cccc(C=CC(=O)N2CCC(C(O)CN3CCC(c4c[nH]c5ccc(NS(C)(=O)=O)cc45)CC3)CC2)c1` (stereo not drawn) [Compound 40, N-[3-(1-{2-hydroxy-2-[1-(3-m-tolyl-acryloyl)-piperidin-4-yl]-ethyl}-piperidin-4-yl)-1H-indol-5-yl]-methanesulfonamide] were 170 nM, 80 nM and 30 nM.
For `CS(=O)(=O)Nc1ccc2[nH]cc(C3CCN(CC(O)C4CCN(C(=O)C=Cc5cc(F)cc(F)c5)CC4)CC3)c2c1` (stereo not drawn) [Compound 41, N-{3-[1-(2-{1-[3-(3,5-difluoro-phenyl)-acryloyl]-piperidin-4-yl}-2-hydroxy-ethyl)-piperidin-4-yl]-1H-indol-5-yl}-methanesulfonamide], in that order: 90 nM, 40 nM and 20 nM.
Taken in the same sequence, the figures for `COc1ccc(C2CCN(CC(CO)C3CCN(C(=O)/C=C/c4ccc(Cl)c(Cl)c4)CC3)CC2)cc1` (stereo not drawn) [Compound 43] were 180 nM, 590 nM and 90 nM.
For the compound `COc1ccc(C2CCN(CC(CO)C3CCN(C(=O)/C=C/c4cc(F)cc(F)c4)CC3)CC2)cc1` (stereo not drawn) [Compound 45], the IC50 in test [1] came out at 150 nM; at CCR2 it was 120 nM; in test [2], 170 nM.
For `O=C(O)C(CC1CCN(C(=O)C=Cc2ccc(Cl)c(Cl)c2)CC1)N1CCC(c2c[nH]c3ccccc23)CC1` (stereo not drawn) [Compound 60, 3-{1-[3-(3,4-dichloro-phenyl)-acryloyl]-piperidin-4-yl}-2-[4-(1H-indol-3-yl)-piperidin-1-yl]-propionic acid], in that order: 380 nM, 310 nM and 290 nM.
For `O=C(O)C(CC1CCN(C(=O)C=Cc2cc(F)cc(F)c2)CC1)N1CCC(c2c[nH]c3ccccc23)CC1` (stereo not drawn) [Compound 61, 3-{1-[3-(3,5-difluoro-phenyl)-acryloyl]-piperidin-4-yl}-2-[4-(1H-indol-3-yl)-piperidin-1-yl]-propionic acid], in that order: 2800 nM, 830 nM and 240 nM.
For `COc1ccc(C2CCN(CC(N)C3CCN(C(=O)/C=C/c4cc(F)c(F)c(F)c4)CC3)CC2)cc1` (stereo not drawn) [Compound 65], in that order: 40 nM, 80 nM and 250 nM.
`COC(=O)NC(CN1CCC(c2ccc(OC)cc2)CC1)C1CCN(C(=O)C=Cc2cc(F)c(F)c(F)c2)CC1` (stereo not drawn) [Compound 67, (2-[4-(4-methoxy-phenyl)-piperidin-1-yl]-1-{1-[3-(3,4,5-trifluoro-phenyl)-acryloyl]-piperidin-4-yl}-ethyl)-carbamic acid methyl ester]: the figures for the IC50 (in test [1]; on CCR2; in test [2]) were 300 nM, 240 nM and 700 nM, respectively.
Taken in the same sequence, the figures for `O=C(/C=C/c1cc(F)c(F)c(F)c1)N1CCC(O)(C(O)CN2CCC(c3c[nH]c4ccccc34)CC2)CC1` (stereo not drawn) [Compound 70] were 80 nM, 180 nM and 10 nM.
As to `O=C(/C=C/c1cc(Cl)cc(Cl)c1)N1CCC(O)(C(O)CN2CCC(c3c[nH]c4ccccc34)CC2)CC1` (stereo not drawn) [Compound 73], the results for the IC50 (in test [1]; on CCR2; in test [2]) were 1 nM, 130 nM and 30 nM, respectively.
For the compound `O=C(/C=C/c1cc(F)cc(Cl)c1)N1CCC(O)(C(O)CN2CCC(c3c[nH]c4ccccc34)CC2)CC1` (stereo not drawn) [Compound 74], the half-maximal inhibitory concentration (IC50) in test [1] was 2 nM; on CCR2, 40 nM; in test [2], 80 nM.
Taken in the same sequence, the figures for `O=C(/C=C/c1ccc(Cl)c(Cl)c1)N1CCC(O)(C(O)CN2CCC(c3c[nH]c4ccccc34)CC2)CC1` (stereo not drawn) [Compound 75] were 5 nM, 350 nM and 30 nM.
Regarding `O=C(/C=C/c1ccc(F)c(F)c1)N1CCC(O)(C(O)CN2CCC(c3c[nH]c4ccccc34)CC2)CC1` (stereo not drawn) [Compound 78], the IC50 was determined as 40 nM in test [1], 370 nM at CCR2 and 210 nM in test [2].
As for `O=C(/C=C/c1ccc(F)c(Br)c1)N1CCC(O)(C(O)CN2CCC(c3c[nH]c4ccccc34)CC2)CC1` (stereo not drawn) [Compound 80], the IC50 in test [1] was 6 nM; on CCR2 it was 200 nM; in test [2], 90 nM.
